Assay results published in patent US20100137275A1 (IPSEN PHARMA S.A.S., priority 2007, published 2010).
Where two headings read alike, the source gives them in different places.

Legend:
[1] = biological target: T1, purified recombinant Cdc25-C enzyme (MBP-Cdc25C protein) (Homo sapiens, UniProt P30307); test: Phosphatase activity of the purified recombinant Cdc25C enzyme (OMFP dephosphorylation, fluorescence); format: biochemical; conditions: OMFP 500 μM, 4 hours at 30° C.
T1 construct: made in house
T1 sequence (P30307 1-473): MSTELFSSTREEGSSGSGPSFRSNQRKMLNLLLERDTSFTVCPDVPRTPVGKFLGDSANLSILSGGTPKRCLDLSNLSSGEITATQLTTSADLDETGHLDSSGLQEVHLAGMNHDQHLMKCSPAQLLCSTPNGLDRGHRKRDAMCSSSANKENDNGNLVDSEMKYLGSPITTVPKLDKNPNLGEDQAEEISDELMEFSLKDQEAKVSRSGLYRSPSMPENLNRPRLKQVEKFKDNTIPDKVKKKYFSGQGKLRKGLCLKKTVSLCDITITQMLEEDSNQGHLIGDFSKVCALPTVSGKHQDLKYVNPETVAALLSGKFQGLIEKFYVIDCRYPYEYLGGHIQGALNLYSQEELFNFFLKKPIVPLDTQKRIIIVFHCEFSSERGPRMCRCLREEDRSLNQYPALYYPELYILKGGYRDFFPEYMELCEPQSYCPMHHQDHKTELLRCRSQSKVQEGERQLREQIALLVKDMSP
Procedure: The phosphatase activity of the MBP-Cdc25C protein is evaluated through its dephosphorylation of 3-O-methylfluorescein-phosphate (OMFP) to form 3-O-methylfluorescein (OMF), determining the fluorescence of the reaction product at 475 nm. This assay can be used to identify inhibitors of the recombinant Cdc25 enzyme. The preparation of the MBP-Cdc25C fusion protein is described in patent application PCT WO 01/44467.
The reaction is performed in 384-well plates in a final volume of 50 μl. The MBP-Cdc25C protein (prepared as described hereinabove) is stored in the following elution buffer: 20 mM Tris-HCl pH 7.4; 250 mM NaCl; 1 mM EDTA; 1 mM dithiothreitol (DTT); 10 mM maltose. It is diluted to a concentration of 60 μM in the following reaction buffer: 50 mM Tris-HCl pH 8.2; 50 mM NaCl; 1 mM DTT; 20% glycerol. The background noise is determined using with the buffer without addition of the enzyme. The products are tested at decreasing concentrations from 40 μM. The reaction is initiated by the addition of a solution OMFP to a final concentration of 500 μM (prepared immediately before use from a 12.5 mM stock solution in 100% DMSO (Sigma #M2629)). After 4 hours at 30° C. in a disposable 384-well plate, the fluorescence measured at OD 475 nm is read on a Victor^2 plate reader (EGG-Wallac). The concentration that produces 50% inhibition of the enzyme reaction is calculated from three independent experiments. Only the values that fall within the linear part of the sigmoid curve are used for the linear regression analysis.

[2] = system: DU145 (human prostate cancer cells); test: Anti-proliferative activity on DU-145 cell line (WST1 colorimetric test); format: cell-based; conditions: read-out: IC50 on the proliferation of the DU-145 cell line
Procedure: By way of an example, the effect of treating two human cell lines Mia-Paca2 and DU145 with the compounds of the examples described hereinbefore will be studied. The cell lines DU145 (human prostate cancer cells) and Mia-PaCa2 (human pancreas cancer cells) were obtained from the American Tissue Culture Collection (Rockville, Md., USA). A 96-well plate was inoculated on day 0 with cells placed in 80 μl of Dulbecco's modified Eagle's medium (Gibco-Brl, Cergy-Pontoise, France) with 10% heat-inactivated foetal calf serum (Gibco-Brl, Cergy-Pontoise, France), 50000 units/1 of penicillin and 50 mg/l of streptomycin (Gibco-Brl, Cergy-Pontoise, France), and 2 mM of glutamine (Gibco-Brl, Cergy-Pontoise, France). The cells were treated on day 1 with increasing concentrations of each test compound up to 10 μM for 96 hours. At the end of this period, cell proliferation is quantified by means of a colorimetric test based on cleavage of the tetrazolium salt WST1 by the mitochondrial dehydrogenases in the viable cells, resulting in formation of formazan (Boehringer Mannheim, Meylan, France). These tests are performed in duplicate with 8 determinations per concentration tested. For each compound to be tested, the values within the linear part of the sigmoid curve were subjected to linear regression analysis and used to estimate the IC50 inhibitory concentration. The products are solubilised in dimethylsulfoxide (DMSO) at a concentration of 10^−2 M and used in culture with a final DMSO concentration of 0.1%.

[3] = DU-145, 96 h, 96 hours treatment

Row | SMILES | melting point [°C] | IC50 [1] [µM] | IC50 [2, 3] [µM] | IC50 ([2]; DU-145, 96 hours treatment) [µM]
1 | CN(CCNC(=S)Nc1ccc(Oc2ccccc2)nc1)CCNc1cc(N2CCCC2)nc(N2CCCC2)n1 [Example 30, N-{2-[{2-[(2,6-dipyrrolidin-1-ylpyrimidin-4-yl)amino]ethyl}(methyl)amino]ethyl}-N′-(6-phenoxypyridin-3-yl)thiourea] | 104 to 106 | ≤ 5 | ≤ 5 | 
2 | CN(CCNC(=S)Nc1ccc(F)cc1)CCNc1cc(N2CCCC2)nc(N2CCCC2)n1 [Example 24, N-{2-[{2-[(2,6-dipyrrolidin-1-ylpyrimidin-4-yl)amino]ethyl}(methyl)amino]ethyl}-N′-(4-fluorophenyl)thiourea] | 115 to 117 | ≤ 5 | ≤ 5 | 
3 | CN(CCNC(=S)Nc1ccc(Cl)c(Cl)c1)CCNc1cc(N2CCCC2)nc(N2CCCC2)n1 [Example 55, N-(3,4-dichlorophenyl)-N′-{2-[{2-[(2,6-dipyrrolidin-1-ylpyrimidin-4-yl)amino]ethyl}(methyl)amino]ethyl}thiourea] | 148 to 150 | ≤ 5 |  | 
4 | CN(CCNC(=O)c1ccc(C(=O)c2ccccc2)cc1)CCNc1cc(N2CCCC2)nc(N2CCCC2)n1 [Example 83, 4-benzoyl-N-{2-[{2-[(2,6-dipyrrolidin-1-ylpyrimidin-4-yl)amino]ethyl}(methyl)amino]ethyl}benzamide] | 119 to 121 | ≤ 5 |  | 
5 | CN(CCNC(=S)Nc1ccc(Sc2ncc(C(F)(F)F)cc2Cl)cc1)CCNc1cc(N2CCCC2)nc(N2CCCC2)n1 [Example 52, N-(4-{[3-chloro-5-(trifluoromethyl)pyridin-2-yl]thio}phenyl)-N′-{2-[{2-[(2,6-dipyrrolidin-1-ylpyrimidin-4-yl)amino]ethyl}(methyl)amino]ethyl}thiourea] | 97 to 99 | ≤ 1 |  | 
6 | CN(CCNC(=S)NCC1CCCO1)CCNc1cc(N2CCCC2)nc(N2CCCC2)n1 (centres unmarked) [Example 31, N-{2-[{2-[(2,6-dipyrrolidin-1-ylpyrimidin-4-yl)amino]ethyl}(methyl)amino]ethyl}-N′-(tetrahydrofuran-2-ylmethyl)thiourea] | 120 to 122 | ≤ 5 |  | 
7 | CN(CCNC(=S)Nc1ccc(Cl)cc1)CCNc1cc(N2CCCC2)nc(N2CCCC2)n1 [Example 22, N-(4-chlorophenyl)-N′-{2-[{2-[(2,6-dipyrrolidin-1-ylpyrimidin-4-yl)amino]ethyl}(methyl)amino]ethyl}thiourea] | 127 to 129 | ≤ 1 |  | 
8 | CN(CCNC(=S)Nc1ccc(C(F)(F)F)cc1)CCNc1cc(N2CCCC2)nc(N2CCCC2)n1 [Example 25, N-{2-[{2-[(2,6-dipyrrolidin-1-ylpyrimidin-4-yl)amino]ethyl}(methyl)amino]ethyl}-N′-[4-(trifluoromethyl)phenyl]thiourea] | 87 to 89 |  | ≤ 5 | 
9 | CN(CCNC(=S)Nc1cccc([N+](=O)[O-])c1)CCNc1cc(N2CCCC2)nc(N2CCCC2)n1 [Example 49, N-{2-[{2-[(2,6-dipyrrolidin-1-ylpyrimidin-4-yl)amino]ethyl}(methyl)amino]ethyl}-N′-(3-nitrophenyl)thiourea] | 125 to 127 | ≤ 1 |  | 
10 | CN(CCNC(=S)Nc1ccc(Cl)c(F)c1)CCNc1cc(N2CCCC2)nc(N2CCCC2)n1 [Example 56, N-(4-chloro-3-fluorophenyl)-N′-{2-[{2-[(2,6-dipyrrolidin-1-ylpyrimidin-4-yl)amino]ethyl}(methyl)amino]ethyl}thiourea] | 146 to 148 | ≤ 5 |  | 
11 | CCNC(=S)NCCN(C)CCNc1cc(N2CCCC2)nc(N2CCCC2)n1 [Example 28, N-{2-[{2-[(2,6-dipyrrolidin-1-ylpyrimidin-4-yl)amino]ethyl}(methyl)amino]ethyl}-N′-ethylthiourea] | 82 to 84 | ≤ 1 |  | 
12 | CN(CCNC(=S)Nc1ccc(S(N)(=O)=O)cc1)CCNc1cc(N2CCCC2)nc(N2CCCC2)n1 [Example 61, 4-{[({2-[{2-[(2,6-dipyrrolidin-1-ylpyrimidin-4-yl)amino]ethyl}(methyl)amino]ethyl}amino)carbonothioyl]amino}benzenesulfonamide] | 140 | ≤ 1 |  | 
13 | CN(CCNC(=S)Nc1ccc(Oc2ccc([N+](=O)[O-])cc2)cc1)CCNc1cc(N2CCCC2)nc(N2CCCC2)n1 [Example 45, N-{2-[{2-[(2,6-dipyrrolidin-1-ylpyrimidin-4-yl)amino]ethyl}(methyl)amino]ethyl}-N′-[4-(4-nitrophenoxy)phenyl]thiourea] |  | ≤ 5 | ≤ 5 | 
14 | Cc1noc(C)c1NC(=O)NCCN(C)CCNc1cc(N2CCCC2)nc(N2CCCC2)n1 [Example 13, N-(3,5-dimethylisoxazol-4-yl)-N′-{2-[{2-[(2,6-dipyrrolidin-1-ylpyrimidin-4-yl)amino]ethyl}(methyl)amino]ethyl}urea] | 95 to 97 | ≤ 1 |  | 
15 | CN(CCNC(=S)Nc1cc(F)cc(F)c1)CCNc1cc(N2CCCC2)nc(N2CCCC2)n1 [Example 41, N-(3,5-difluorophenyl)-N′-{2-[{2-[(2,6-dipyrrolidin-1-ylpyrimidin-4-yl)amino]ethyl}(methyl)amino]ethyl}thiourea] | 124 to 126 | ≤ 5 |  | 
16 | CN(CCNC(=O)N[C@@H]1CCc2ccccc2C1)CCNc1cc(N2CCCC2)nc(N2CCCC2)n1 [Example 11] |  | ≤ 5 |  | ≤ 5
17 | CN(CCNC(=S)Nc1cccc(F)c1)CCNc1cc(N2CCCC2)nc(N2CCCC2)n1 [Example 39, N-{2-[{2-[(2,6-dipyrrolidin-1-ylpyrimidin-4-yl)amino]ethyl}(methyl)amino]ethyl}-N′-(3-fluorophenyl)thiourea] | 118 to 120 | ≤ 1 |  | 
18 | CN(CCNC(=S)Nc1ccc([N+](=O)[O-])cc1)CCNc1cc(N2CCCC2)nc(N2CCCC2)n1 [Example 43, N-{2-[{2-[(2,6-dipyrrolidin-1-ylpyrimidin-4-yl)amino]ethyl}(methyl)amino]ethyl}-N′-(4-nitrophenyl)thiourea] | 146 to 148 | ≤ 1 |  | 
19 | Cc1cc(C)nc(NS(=O)(=O)c2ccc(NC(=S)NCCN(C)CCNc3cc(N4CCCC4)nc(N4CCCC4)n3)cc2)n1 [Example 50, N-(4,6-dimethylpyrimidin-2-yl)-4-{[({2-[{2-[(2,6-dipyrrolidin-1-ylpyrimidin-4-yl)amino]ethyl}(methyl)amino]ethyl}amino)carbonothioyl]amino}benzenesulfonamide] | 129 | ≤ 1 |  | 
20 | CN(CCNC(=O)NCc1ccccc1)CCNc1cc(N2CCCC2)nc(N2CCCC2)n1 [Example 8, N-benzyl-N′-{2-[{2-[(2,6-dipyrrolidin-1-ylpyrimidin-4-yl)amino]ethyl}(methyl)amino]ethyl}urea] | 87 to 89 | ≤ 5 |  | 
21 | CN(CCNC(=S)Nc1c(F)c(F)c(F)c(F)c1F)CCNc1cc(N2CCCC2)nc(N2CCCC2)n1 [Example 34, N-{2-[{2-[(2,6-dipyrrolidin-1-ylpyrimidin-4-yl)amino]ethyl}(methyl)amino]ethyl}-N′-(pentafluorophenyl)thiourea] | 92 to 94 | ≤ 5 |  | 
